Laboratory results published in patent US20230067378A1, “COMPOSITIONS AND METHODS FOR THE TREATMENT OF ESTROGEN-DEPENDENT DISORDERS” (ObsEva S.A., priority 2018, published 2023).

System: pre-menopausal women
Test: uterine bleeding pattern, clinical trial of compound (VI) 200 mg per day (choline salt) with add-back therapy (1.0 mg E2, 0.5 mg norethindrone acetate)
Type: in vivo, human
Method: The experiments described in this example were conducted as part of a single-center, open-label, randomized, parallel-group clinical trial in 32 pre-menopausal women. Following screening assessments, and during the second half of the menstrual cycle, women received norethindrone (5 mg, three-times daily for 10 days) to synchronize menstrual cycles. After menstrual cycle synchronization, subjects were randomized with a 1:1 ratio to one of two treatment arms: (i) a cohort receiving once-daily administration of compound (VI) (200 mg per day, administered in the form of a choline salt) with concurrent onset of add-back therapy administration for 10 weeks (“Concurrent-ABT”), or (ii) a cohort receiving pre-treatment with compound (VI) (200 mg per day, administered in the form of a choline salt) for 4 weeks followed by combined daily administration of compound (VI) and add-back therapy (“Delayed-ABT”). The add-back therapy used in these experiments contained 1.0 mg of E2 and 0.5 mg of norethindrone acetate, and was administered to subjects once daily.
The main treatment outcomes and endpoints measured during these experiments included (i) a qualitative assessment of uterine blood loss, which was recorded on a daily basis throughout the study by characterizing each subject's bleeding pattern using one of the following four categories: “no bleeding,” “spotting” (light staining, dark blood, no sanitary protection needed or only panty liner), “bleeding” (1-4 completely soiled maxi sanitary towels or 1-8 soiled tampons or equivalent combination of the two), or “heavy bleeding” (>4 completely soiled maxi sanitary towels or >8 soiled tampons or equivalent combination of the two); (ii) a bi-weekly assessment of each subject's circulating E2 concentration; (iii) a bi-weekly assessment of each subject's circulating progesterone concentration (measured using a validated commercial chemiluminescence immunoassay method (Elecsys Progesterone III, Roche, Burgess Hill, UK)); (iv) the pharmacokinetic profile of compound (VI) and the add-back therapy; and (v) adverse events.

[1] = Concurrent-ABT group, first half of treatment
[2] = Concurrent-ABT group, second half of the treatment period
[3] = Days 1-14, treatment A (Concurrent-ABT), N=16
[4] = Days 1-14, treatment B (Delayed-ABT), N=16
[5] = Days 15-28, Overall (A+B), N=32
[6] = Days 15-28, treatment A (Concurrent-ABT), N=16
[7] = Days 15-28, treatment B (Delayed-ABT), N=16
[8] = Days 29-42, Overall (A+B), N=29
[9] = Days 29-42, treatment A (Concurrent-ABT), N=14

COc1cc(F)c(-n2c(=O)[nH]c3csc(C(=O)O)c3c2=O)cc1OCc1c(OC)ccc(F)c1F [Compound (VI), 3-[2-fluoro-5-(2,3-difluoro-6-methoxybenzyloxy)4-methoxyphenyl]-2,4-dioxo-1,2,3,4-tetrahydrothieno [3,4d]pyrimidine-5-carboxylic acid]
women who had reached amenorrhea within 5 days of treatment (Concurrent-ABT group): ~40%
bleeding, frequency [1]: ≤ 4%
spotting, frequency [1]: ≤ 10%
women in complete amenorrhea (no bleeding) (Concurrent-ABT group, last 4 weeks of treatment): ~80%
amenorrhea, frequency [2]: up to 98%
bleeding, frequency [2]: less than 3%
spotting, frequency [2]: 1-5%
Uterine Bleeding Pattern (Concurrent-ABT, Weeks 2-4): Spotting and bleeding generally decreased over time
Uterine Bleeding Pattern: Bleeding (Concurrent-ABT, Weeks 2-4): Bleeding: ≤4%
Uterine Bleeding Pattern: Spotting (Concurrent-ABT, Weeks 2-4): Spotting: ≤8%
Uterine Bleeding Pattern: Bleeding (Concurrent-ABT, Weeks 7-10): Bleeding: ≤2%
Uterine Bleeding Pattern: Spotting (Concurrent-ABT, Weeks 7-10): Spotting: 1-5%
Uterine Bleeding Pattern: amenorrhea (Concurrent-ABT, Weeks 7-10): Amenorrhea: Up to 98%
No Bleeding or Spotting, subjects (%), Plasma Estradiol Level 20-50 pg/mL (Days 1-14, Overall (A+B), N=32): (9.4%)
No Bleeding or Spotting, subjects (%), Plasma Estradiol Level <20 pg/mL (Days 1-14, Overall (A+B), N=32): (15.6%)
No Bleeding or Spotting, subjects (%), Plasma Estradiol Level >50 pg/mL (Days 1-14, Overall (A+B), N=32): (3.1%)
No Bleeding or Spotting, subjects (n), Plasma Estradiol Level 20-50 pg/mL (Days 1-14, Overall (A+B), N=32): 3
No Bleeding or Spotting, subjects (n), Plasma Estradiol Level <20 pg/mL (Days 1-14, Overall (A+B), N=32): 5
No Bleeding or Spotting, subjects (n), Plasma Estradiol Level >50 pg/mL (Days 1-14, Overall (A+B), N=32): 1
No Bleeding, subjects (%), Plasma Estradiol Level 20-50 pg/mL (Days 1-14, Overall (A+B), N=32): (0.0%)
No Bleeding, subjects (%), Plasma Estradiol Level <20 pg/mL (Days 1-14, Overall (A+B), N=32): (3.1%)
No Bleeding, subjects (%), Plasma Estradiol Level >50 pg/mL (Days 1-14, Overall (A+B), N=32): (3.1%)
No Bleeding, subjects (n), Plasma Estradiol Level 20-50 pg/mL (Days 1-14, Overall (A+B), N=32): 0
No Bleeding, subjects (n), Plasma Estradiol Level <20 pg/mL (Days 1-14, Overall (A+B), N=32): 1
No Bleeding, subjects (n), Plasma Estradiol Level >50 pg/mL (Days 1-14, Overall (A+B), N=32): 1
No Bleeding or Spotting, subjects (%), Plasma Estradiol Level 20-50 pg/mL [3]: (18.8%)
No Bleeding or Spotting, subjects (%), Plasma Estradiol Level <20 pg/mL [3]: (0.0%)
No Bleeding or Spotting, subjects (%), Plasma Estradiol Level >50 pg/mL [3]: (6.3%)
No Bleeding or Spotting, subjects (n), Plasma Estradiol Level 20-50 pg/mL [3]: 3
No Bleeding or Spotting, subjects (n), Plasma Estradiol Level <20 pg/mL [3]: 0
No Bleeding or Spotting, subjects (n), Plasma Estradiol Level >50 pg/mL [3]: 1
No Bleeding, subjects (%), Plasma Estradiol Level 20-50 pg/mL [3]: (0.0%)
No Bleeding, subjects (%), Plasma Estradiol Level <20 pg/mL [3]: (0.0%)
No Bleeding, subjects (%), Plasma Estradiol Level >50 pg/mL [3]: (6.3%)
No Bleeding, subjects (n), Plasma Estradiol Level 20-50 pg/mL [3]: 0
No Bleeding, subjects (n), Plasma Estradiol Level <20 pg/mL [3]: 0
No Bleeding, subjects (n), Plasma Estradiol Level >50 pg/mL [3]: 1
No Bleeding or Spotting, subjects (%), Plasma Estradiol Level 20-50 pg/mL [4]: (0.0%)
No Bleeding or Spotting, subjects (%), Plasma Estradiol Level <20 pg/mL [4]: (31.3%)
No Bleeding or Spotting, subjects (%), Plasma Estradiol Level >50 pg/mL [4]: (0.0%)
No Bleeding or Spotting, subjects (n), Plasma Estradiol Level 20-50 pg/mL [4]: 0
No Bleeding or Spotting, subjects (n), Plasma Estradiol Level <20 pg/mL [4]: 5
No Bleeding or Spotting, subjects (n), Plasma Estradiol Level >50 pg/mL [4]: 0
No Bleeding, subjects (%), Plasma Estradiol Level 20-50 pg/mL [4]: (0.0%)
No Bleeding, subjects (%), Plasma Estradiol Level <20 pg/mL [4]: (6.3%)
No Bleeding, subjects (%), Plasma Estradiol Level >50 pg/mL [4]: (0.0%)
No Bleeding, subjects (n), Plasma Estradiol Level 20-50 pg/mL [4]: 0
No Bleeding, subjects (n), Plasma Estradiol Level <20 pg/mL [4]: 1
No Bleeding, subjects (n), Plasma Estradiol Level >50 pg/mL [4]: 0
No Bleeding or Spotting, subjects (%), Plasma Estradiol Level 20-50 pg/mL [5]: (34.4%)
No Bleeding or Spotting, subjects (%), Plasma Estradiol Level <20 pg/mL [5]: (53.1%)
No Bleeding or Spotting, subjects (%), Plasma Estradiol Level >50 pg/mL [5]: (3.1%)
No Bleeding or Spotting, subjects (n), Plasma Estradiol Level 20-50 pg/mL [5]: 11
No Bleeding or Spotting, subjects (n), Plasma Estradiol Level <20 pg/mL [5]: 17
No Bleeding or Spotting, subjects (n), Plasma Estradiol Level >50 pg/mL [5]: 1
No Bleeding, subjects (%), Plasma Estradiol Level 20-50 pg/mL [5]: (21.9%)
No Bleeding, subjects (%), Plasma Estradiol Level <20 pg/mL [5]: (50.0%)
No Bleeding, subjects (%), Plasma Estradiol Level >50 pg/mL [5]: (3.1%)
No Bleeding, subjects (n), Plasma Estradiol Level 20-50 pg/mL [5]: 7
No Bleeding, subjects (n), Plasma Estradiol Level <20 pg/mL [5]: 16
No Bleeding, subjects (n), Plasma Estradiol Level >50 pg/mL [5]: 1
No Bleeding or Spotting, subjects (%), Plasma Estradiol Level 20-50 pg/mL [6]: (62.5%)
No Bleeding or Spotting, subjects (%), Plasma Estradiol Level <20 pg/mL [6]: (12.5%)
No Bleeding or Spotting, subjects (%), Plasma Estradiol Level >50 pg/mL [6]: (6.3%)
No Bleeding or Spotting, subjects (n), Plasma Estradiol Level 20-50 pg/mL [6]: 10
No Bleeding or Spotting, subjects (n), Plasma Estradiol Level <20 pg/mL [6]: 2
No Bleeding or Spotting, subjects (n), Plasma Estradiol Level >50 pg/mL [6]: 1
No Bleeding, subjects (%), Plasma Estradiol Level 20-50 pg/mL [6]: (37.5%)
No Bleeding, subjects (%), Plasma Estradiol Level <20 pg/mL [6]: (12.5%)
No Bleeding, subjects (%), Plasma Estradiol Level >50 pg/mL [6]: (6.3%)
No Bleeding, subjects (n), Plasma Estradiol Level 20-50 pg/mL [6]: 6
No Bleeding, subjects (n), Plasma Estradiol Level <20 pg/mL [6]: 2
No Bleeding, subjects (n), Plasma Estradiol Level >50 pg/mL [6]: 1
No Bleeding or Spotting, subjects (%), Plasma Estradiol Level 20-50 pg/mL [7]: (6.3%)
No Bleeding or Spotting, subjects (%), Plasma Estradiol Level <20 pg/mL [7]: (93.8%)
No Bleeding or Spotting, subjects (%), Plasma Estradiol Level >50 pg/mL [7]: (0.0%)
No Bleeding or Spotting, subjects (n), Plasma Estradiol Level 20-50 pg/mL [7]: 1
No Bleeding or Spotting, subjects (n), Plasma Estradiol Level <20 pg/mL [7]: 15
No Bleeding or Spotting, subjects (n), Plasma Estradiol Level >50 pg/mL [7]: 0
No Bleeding, subjects (%), Plasma Estradiol Level 20-50 pg/mL [7]: (6.3%)
No Bleeding, subjects (%), Plasma Estradiol Level <20 pg/mL [7]: (87.5%)
No Bleeding, subjects (%), Plasma Estradiol Level >50 pg/mL [7]: (0.0%)
No Bleeding, subjects (n), Plasma Estradiol Level 20-50 pg/mL [7]: 1
No Bleeding, subjects (n), Plasma Estradiol Level <20 pg/mL [7]: 14
No Bleeding, subjects (n), Plasma Estradiol Level >50 pg/mL [7]: 0
No Bleeding or Spotting, subjects (%), Plasma Estradiol Level 20-50 pg/mL [8]: (55.2%)
No Bleeding or Spotting, subjects (%), Plasma Estradiol Level <20 pg/mL [8]: (13.8%)
No Bleeding or Spotting, subjects (%), Plasma Estradiol Level >50 pg/mL [8]: (20.7%)
No Bleeding or Spotting, subjects (n), Plasma Estradiol Level 20-50 pg/mL [8]: 16
No Bleeding or Spotting, subjects (n), Plasma Estradiol Level <20 pg/mL [8]: 4
No Bleeding or Spotting, subjects (n), Plasma Estradiol Level >50 pg/mL [8]: 6
No Bleeding, subjects (%), Plasma Estradiol Level 20-50 pg/mL [8]: (41.4%)
No Bleeding, subjects (%), Plasma Estradiol Level <20 pg/mL [8]: (13.8%)
No Bleeding, subjects (%), Plasma Estradiol Level >50 pg/mL [8]: (17.2%)
No Bleeding, subjects (n), Plasma Estradiol Level 20-50 pg/mL [8]: 12
No Bleeding, subjects (n), Plasma Estradiol Level <20 pg/mL [8]: 4
No Bleeding, subjects (n), Plasma Estradiol Level >50 pg/mL [8]: 5
No Bleeding or Spotting, subjects (%), Plasma Estradiol Level 20-50 pg/mL [9]: (64.3%)
No Bleeding or Spotting, subjects (%), Plasma Estradiol Level <20 pg/mL [9]: (7.1%)
No Bleeding or Spotting, subjects (%), Plasma Estradiol Level >50 pg/mL [9]: (21.4%)
